Experimental data taken from patent EP0513703A2, “Carbamate esters of eseroline having anticholinesterase activity, a process for their preparation and relative pharmaceutical compositions containing them as the active principle” (priority 1991, dated 1992).
Values joined by “and” are separate entries in the source; they are usually repeats but may differ in a detail not shown here. Equal entries are not always repeated.

Experiments:
mice = experiment: Toxicity, LD50 by intraperitoneal route (class B derivatives); assay type: in vivo; settings: death within 24 hours of 50% of the tested animals
Description: In the following table reported are LD50 values determined on mice for the listed compounds and compared with that of physostigmine administered by the same (intraperitoneal) route.

[1] = molecular target: T1, acetylicholinesterase enzyme in the mouse brain (Mus musculus, UniProt P21836); experiment: Inhibition of acetylcholinesterase in the mouse brain after single doses (class B derivatives); assay type: in vivo; settings: single doses in the range 0.4-7mg/kg
T1 construct: from tissue; host or cells: mouse brain
T1 sequence (P21836 32-614): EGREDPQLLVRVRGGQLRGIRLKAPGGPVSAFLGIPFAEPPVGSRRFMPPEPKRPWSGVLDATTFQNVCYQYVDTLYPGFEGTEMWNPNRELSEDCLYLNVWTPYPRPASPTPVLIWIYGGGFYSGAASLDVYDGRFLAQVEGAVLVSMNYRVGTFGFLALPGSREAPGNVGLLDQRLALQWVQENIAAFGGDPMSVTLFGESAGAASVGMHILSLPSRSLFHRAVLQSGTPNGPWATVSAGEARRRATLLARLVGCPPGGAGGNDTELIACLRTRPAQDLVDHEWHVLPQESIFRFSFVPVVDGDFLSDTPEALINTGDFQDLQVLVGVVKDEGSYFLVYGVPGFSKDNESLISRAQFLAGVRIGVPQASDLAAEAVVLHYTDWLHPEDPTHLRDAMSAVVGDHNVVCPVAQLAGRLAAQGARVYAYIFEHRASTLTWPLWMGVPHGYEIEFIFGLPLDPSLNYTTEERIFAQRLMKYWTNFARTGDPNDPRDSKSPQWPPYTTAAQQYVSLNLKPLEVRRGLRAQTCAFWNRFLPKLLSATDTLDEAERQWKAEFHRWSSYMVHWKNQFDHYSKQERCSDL

[2] = test system: anticholinesterase activity, on the mouse brain; experiment: Inhibition of cholinesterase activity on the mouse brain after single doses (class C derivatives); assay type: in vivo; settings: for suppression of the enzymatic activity: even at higher doses; for duration of the inhibitory activity compared with physostigmine: mouse brain; for inhibition of the anticholinesterase activity, on the mouse brain (in words): single doses in the range 0.4-7mg/kg
motor activity = experiment: Antagonist effect on the stimulating effect of scopolamine (class C derivatives); assay type: in vivo; settings: scopolamine 1 mg/kg; oral administration
Description: This is countered by the oral administration of 2.5 mg of ES001, ES002, ES003.

mouse [3] = experiment: Toxicity, LD50 by intraperitoneal route (class C derivatives); assay type: in vivo
Description: In the following table reported are the LD50 values determined on mouse for the compounds listed and compared with the corresponding LD50 value for physostigmine, administered by the same (intraperitoneal) route.

mouse [4] = experiment: Spontaneous motility, Dews method modified according to Carminati (class A derivatives); assay type: in vivo; settings: mouse (Swiss), oral, starting from minimum doses of 4-6 mg/kg
Description: (§1) The Dews method was used, modified according to Carminati (Arch. int. Pharmacodyn. et Thér 181, 68,1969).

[5] = test system: acetylcholinesterase (AchE); assay type: in vivo, Wistar male rats; settings: rat, oral, 1.5 to 4.5 mg/kg
mice (Swiss strain) [6] = experiment: Acute toxicity, LD50 by oral route in mice (class A derivatives); assay type: in vivo; settings: mouse, suspension in 2 % carboxymethylcellulose, observation 7 days
Description: The letal doses 50 (LD50) by oral route (suspension in 2 % carboxymethylcellulose) are reported herinbelow: TABLE 1

mice (Swiss strain) [7] = experiment: Acute toxicity, LD50 by oral route in mice (class E derivatives); assay type: in vivo; settings: mouse, suspension in 2 % carboxymethylcellulose, observation 7 days
Description: The letal doses 50 (LD50) by oral route (suspension in 2 % carboxymethylcellulose) are reported herinbelow: TABLE 9

mouse [8] = experiment: Spontaneous motility, Dews method modified according to Carminati (class E derivatives); assay type: in vivo; settings: mouse (Strain Swiss); for decrease of the spontaneous motility (on average): oral, 0.25 mg/kg
Description: as §1

## CN1CC[C@@]2(C)c3cc(OC(=O)NCCC(=O)O)ccc3N(C)[C@@H]12 [Compound M001]
mice
  LD50 (mg/kg i.p.): >20 mg/kg i.p. and <40 mg/kg i.p.
[1]
  inhibition of acetylicholinesterase enzyme in the mouse brain (in words): dose -dependence, reversible inhibition

## CC(CNC(=O)Oc1ccc2c(c1)[C@]1(C)CCN(C)[C@@H]1N2C)C(=O)O (some centres unmarked) [Compound M002]
mice
  LD50 (mg/kg i.p.): >40 mg/kg i.p. and <80 mg/kg i.p.
[1]
  inhibition of acetylicholinesterase enzyme in the mouse brain (in words): dose -dependence, reversible inhibition

## CN1CC[C@@]2(C)c3cc(OC(=O)NCCCCCCCCC(=O)O)ccc3N(C)[C@@H]12 [Compound M003]
mice
  LD50 (mg/kg i.p.): >30 mg/kg i.p. and <60 mg/kg i.p.
[1]
  inhibition of acetylicholinesterase enzyme in the mouse brain (in words): dose -dependence, reversible inhibition

## CN1CC[C@@]2(C)c3cc(OC(=O)NC(CO)C(=O)O)ccc3N(C)[C@@H]12 (some centres unmarked) [Compound M006]
[1]
  inhibition of acetylicholinesterase enzyme in the mouse brain (in words): dose -dependence, reversible inhibition

## CN1CC[C@@]2(C)c3cc(OC(=O)NCC(O)CC(=O)O)ccc3N(C)[C@@H]12 (some centres unmarked) [Compound M007]
mice
  LD50 (mg/kg i.p.): >30 mg/kg i.p. and <60 mg/kg i.p.
[1]
  inhibition of acetylicholinesterase enzyme in the mouse brain (in words): dose -dependence, reversible inhibition

## CC(CC(=O)O)NC(=O)Oc1ccc2c(c1)[C@]1(C)CCN(C)[C@@H]1N2C (some centres unmarked) [Compound M008]
mice
  LD50 (mg/kg i.p.): >20 mg/kg i.p. and <40 mg/kg i.p.
[1]
  inhibition of acetylicholinesterase enzyme in the mouse brain (in words): dose -dependence, reversible inhibition

## CN1CC[C@@]2(C)c3cc(OC(=O)NCCC(O)CC(=O)O)ccc3N(C)[C@@H]12 (some centres unmarked) [Compound M009]
mice
  LD50 (mg/kg i.p.): >20 mg/kg i.p. and <40 mg/kg i.p.
[1]
  inhibition of acetylicholinesterase enzyme in the mouse brain (in words): dose -dependence, reversible inhibition

## CC(O)CNC(=O)Oc1ccc2c(c1)[C@]1(C)CCN(C)[C@@H]1N2C (stereo partly drawn) [ES001, trimethyl-1,3a,8 hexahydro-1,2,3a,8,8a-pyrrol(2,3-b)indol-5(3aS,8aR)2-hydroxypropylcarbamate]
[2]
  suppression of the enzymatic activity: do not completely suppress the enzymatic activity
  duration of the inhibitory activity compared with physostigmine: lasts longer than that of physostigmine
  inhibition of the anticholinesterase activity, on the mouse brain (in words): dose-dependence, reversible inhibition
Motor activity
  oral dose countering the stimulating effect of scopolamine: 2.5 mg
Mouse [3]
  LD50 (mg/kg i.p): >20 mg/kg i.p and <40 mg/kg i.p

## CCCCCCCC/C=C\CCCCCCCC(=O)OC(C)CNC(=O)Oc1ccc2c(c1)[C@]1(C)CCN(C)[C@@H]1N2C (stereo partly drawn) [ES002, trimethyl-1,3a,8 hexahydro-1,2,3a,8,8a-pyrrol(2,3-b)indol-5(3aS,8aR)-2-oleoxypropylcarbamate]
[2]
  suppression of the enzymatic activity: do not completely suppress the enzymatic activity
  duration of the inhibitory activity compared with physostigmine: lasts longer than that of physostigmine
  inhibition of the anticholinesterase activity, on the mouse brain (in words): dose-dependence, reversible inhibition
Motor activity
  oral dose countering the stimulating effect of scopolamine: 2.5 mg
Mouse [3]
  LD50 (mg/kg i.p): >40 mg/kg i.p and <80 mg/kg i.p

## CN1CC[C@@]2(C)c3cc(OC(=O)NCC(C)(O)c4ccccc4)ccc3N(C)[C@@H]12 (stereo partly drawn) [ES004, trimethyl-1,3a,8, hexahydro-1,2,3a, 8,8a-pyrrol (2,3-b) indol-5 (3aS,8aR)-2-hydroxy-2-phenylpropylcarbamate]
Mouse [3]
  LD50 (mg/kg i.p): >10 mg/kg i.p and <15 mg/kg i.p

## CN1CC[C@@]2(C)c3cc(OC(=O)Nc4ccccc4O)ccc3N(C)[C@@H]12 [ES005, trimethyl-1,3a,8 hexahydro-1,2,3a,8,8a-pyrrol(2,3-b)indol-5(3aS,8aR)-2-hydroxy-phenyl-carbamate]
Mouse [3]
  LD50 (mg/kg i.p): >15 mg/kg i.p and <30 mg/kg i.p

## CCCCCCCCCCCCCCCCCC(=O)OC(CCCCCC)CNC(=O)Oc1ccc2c(c1)[C@]1(C)CCN(C)[C@@H]1N2C (stereo partly drawn) [ES007, trimethyl-1,3a,8 hexahydro-1,2,3a,8,8a-pyrrol(2,3-b)indol-5-(3aS,8aR)-2-stearoyloxyoctanylcarbamate]
Mouse [3]
  LD50 (mg/kg i.p): >40 mg/kg i.p and <80 mg/kg i.p

## CN1CC[C@@]2(C)c3cc(OC(=O)NCC(O)CC4CCCCC4)ccc3N(C)[C@@H]12 (stereo partly drawn) [ES008, trimethyl-1,3a,8, hexahydro-1,2,3a,8,-8a pyrrol(2,3-b)indol-5-(3aS,8aR)-3-cyclohexyl-2-hydroxypropylcarbamate]
Mouse [3]
  LD50 (mg/kg i.p): >20 mg/kg i.p and <30 mg/kg i.p

## CC(C)C[C@H](NC(=O)Oc1ccc2c(c1)[C@]1(C)CCN(C)[C@@H]1N2C)C(=O)O [MGS103, (3-aS-cis) 1,2,3,3a,8,8a-hexahydro 1,3a,8-trimethyl pyrrol [2,3-b]-indol-5-ol-L-2(4-methylvaleric acid) carbamate ester]
Mouse [4]
  decrease of the spontaneous motility (on average): ~-30%
[5]
  inhibitory cerebral and serumal acetylcholinesterase activity (in words): clear inhibitory dose-dependent and reversible
Mice (Swiss strain) [6]
  LD50 per os: 412.6 ± 46.34 mg/kg

## CC(C)[C@H](NC(=O)Oc1ccc2c(c1)[C@]1(C)CCN(C)[C@@H]1N2C)C(=O)O [MGS104, (3-as-cis) 1,2,3,3a,8,8a-hexahydro 1,3a,8-trimethyl pyrrol [2,3-b]-indol-5-ol-L-(3-methylbutyric acid) carbamate ester]
Mouse [4]
  decrease of the spontaneous motility (on average): ~-30%
[5]
  inhibitory cerebral and serumal acetylcholinesterase activity (in words): clear inhibitory dose-dependent and reversible
Mice (Swiss strain) [6]
  LD50 per os: 423.0 ± 35.21 mg/kg

## CN1CC[C@@]2(C)c3cc(OC(=O)NCC(=O)O)ccc3N(C)[C@@H]12 [MGS105, (3-as-cis) 1,2,3,3a,8,8a-hexahydro 1,3a,8-trimethyl pyrrol [2,3-b]-indol-5-ol (acetic acid) carbamate ester]
Mouse [4]
  decrease of the spontaneous motility (on average): ~-30%
[5]
  inhibitory cerebral and serumal acetylcholinesterase activity (in words): clear inhibitory dose-dependent and reversible
Mice (Swiss strain) [6]
  LD50 per os: 345.6 ± 24.86 mg/kg

## CN1CC[C@@]2(C)c3cc(OC(=O)NCCCCCCCCNC(=O)Oc4ccc5c(c4)[C@]4(C)CCN(C)[C@@H]4N5C)ccc3N(C)[C@@H]12 [MS002, Salicylate of (3a S-cis) - 1,2,3a,8,8a hexahydro - 1,3a,- trimethyl pyrrol [2,3-b]-indol-5-ol-1,8-octandicarbamate ester]
Mice (Swiss strain) [7]
  LD50 per os: 48.98 ± 6.31 mg/kg
Mouse [8]
  oral dose causing a significant decrease of the spontaneous motility: 0.25 mg/kg
  decrease of the spontaneous motility (on average): ~-25%

## CN1CC[C@@]2(C)c3cc(OC(=O)NCCCCCNC(=O)Oc4ccc5c(c4)[C@]4(C)CCN(C)[C@@H]4N5C)ccc3N(C)[C@@H]12 [MS007, (3a S-cis) - 1,2,3,3a,8,8a hexahydro - 1,3a,8 - trimethyl pyrrol [2,3-b]-indol-5-ol-1,5-pentandicarbamate ester]
Mice (Swiss strain) [7]
  LD50 per os: 64.26 ± 10.29 mg/kg
Mouse [8]
  oral dose causing a significant decrease of the spontaneous motility: 0.25 mg/kg
  decrease of the spontaneous motility (on average): ~-25%

## CN1CC[C@@]2(C)c3cc(OC(=O)NCCCCCCNC(=O)Oc4ccc5c(c4)[C@]4(C)CCN(C)[C@@H]4N5C)ccc3N(C)[C@@H]12 [MS010, (3a S-cis) - 1,2,3,3a,8,8a hexahydro - 1,3a,8 - trimethyl pyrrol [2,3-b]-indol-5-ol-1,6-hexandicarbamate ester]
Mice (Swiss strain) [7]
  LD50 per os: 50.65 ± 5.48 mg/kg
Mouse [8]
  oral dose causing a significant decrease of the spontaneous motility: 0.25 mg/kg
  decrease of the spontaneous motility (on average): ~-25%

## CN1CC[C@@]2(C)c3cc(OC(=O)NCCCCCCCNC(=O)Oc4ccc5c(c4)[C@]4(C)CCN(C)[C@@H]4N5C)ccc3N(C)[C@@H]12 [MS011, (3a S-cis) - 1,2,3,3a,8,8a hexahydro - 1,3a,8 - trimethyl pyrrol [2,3-b]-indol-5-ol-1,7-heptandicarbamate ester]
Mice (Swiss strain) [7]
  LD50 per os: 63.31 ± 9.32 mg/kg
Mouse [8]
  oral dose causing a significant decrease of the spontaneous motility: 0.25 mg/kg
  decrease of the spontaneous motility (on average): ~-25%

## trimethyl -1,3a,8-hexahydro-1,2,3a,8,8a-pyrrol(2,3-b)indol-5-(3aS,8aR)12-hydroxystearylpropylcarbamate [ES003]
[2]
  suppression of the enzymatic activity: do not completely suppress the enzymatic activity
  duration of the inhibitory activity compared with physostigmine: lasts longer than that of physostigmine
  inhibition of the anticholinesterase activity, on the mouse brain (in words): dose-dependence, reversible inhibition
Motor activity
  oral dose countering the stimulating effect of scopolamine: 2.5 mg
Mouse [3]
  LD50 (mg/kg i.p): >40 mg/kg i.p and <80 mg/kg i.p
